Key:
[1] = system: cells isolated from seminiferous tubules of ICR immature (7-day-old) mice; assay: Effect of hormones and retinoic acid on development of mouse spermatogenesis in vitro in methylcellulose culture system (qPCR of markers); type: cell-based; conditions: 10^−8 M, 10^−7 M or 10^−6 M added after two weeks of culture, examined after total four weeks, normal immature mice
Method: Cells were enzymatically isolated from seminiferous tubules of ICR mice (which were developed by the Institute of Cancer Research, also called CD-1) immature mice (7-day-old mice).
Briefly, cells were cultured (2×10^5 cells/well/500 μl) in MEM medium which contained sodium bicarbonate 7.5%, L-glutamine 200 mM, non-essential amino acids 1%, penicillin/streptomycin and gentamicin 10 mg/ml, and were incubated over 2 nights in 24 wells plate at 37° C., 5% CO2. The nonadherent cells were collected and cultured ([…] cells/well/500 μl) in methylcellulose (42%; R&D, Minneapolis, USA) [as a three-dimension (3D) culture system], which contained the StemPro-34 medium (Gibco, USA) enriched with: 10% KSR (knockout serum replacement, Gibco, USA) and the following growth factors: Glial cell-derived neurotrophic factor (GDNF; 10 ng/ml; Biolegend), Leukemia inhibitory factor (LIF; 10 ng/ml; Biolegend), epidermal growth factors (EGF; 20 ng/ml; Biolegend, CA, USA), bFGF (basic fibroblast growth factor) (10 ng/ml; Biolegend).
Cells were cultured for 4 weeks. Every 1-2 weeks (according to the growth and morphology of the cells) the present inventor added 50 μl/well of fresh concentrated (×10) enriched StemPro-34 medium to the cell cultures. […]

[2] = system: Isolated testicular cells (from azoospermic adult patients); assay: Effect of TNFα on development of spermatogenic markers in vitro in methylcellulose culture system (MCS); type: cell-based, human; set-up: key to VASA (pre-meiotic marker) staining / PLZF (pre-meiotic marker) staining / SALL4 (pre-meiotic marker) staining / CREM (meiotic marker) staining / BOULE (meiotic marker) staining / ACROSIN (post-meiotic marker) staining: “+” indicates positive staining for the indicated marker; “−” indicates negative staining for the indicated marker
Text: After an overnight in sperm wash media containing 30% human serum albumin at room temperature (RT), TESE specimen were re-searched for sperm and then collected into the same media and transferred to the present inventor' lab, while TEFNA specimens were transferred to Modified Human Tubal Fluid (HTF) media containing 15% serum protein substitutes and transferred to the present inventor' lab after two days at RT. For cell isolation, biopsies were cut into small pieces of ˜2 mm, and subjected to collagenase type V (2 mg/ml) (Sigma, St. Louis, Mo., USA), DNAse (8 μg/ml) (Sigma) and hyelorunidase (2 mg/ml) (Sigma) in a total volume of 4 ml for 20 minutes in a 32° C. water bath shaker. Cells were precipitated by centrifugation (300×g, 10 minutes) and suspended with 4 ml of Tryple Select (Gibco, Denmark) for 10 minutes in a shaking water bath at 32° C. Cell suspension was centrifuged (300×g, 10 minutes) and the precipitated cells were suspended in 200 μl Roswell Park Memorial Institute (RPMI) (Biological Industries, Beit Haemek, Israel) and counted. Cells were cultured (2×10^4 cells/well/500 μl) in Minimum Essential Medi (MEM) (Biological Industries) which contained sodium bicarbonate (Gibco, UK), 7.5%, L-glutamine (Biological industries) 200 mM, non-essential amino acids (Gibco, UK) 1%, penicillin/streptomycin (Biological Industries) and gentamicin (Biological Industries) (10 mg/ml), and incubated for 2 nights in 24 well plates at 37° C., 5% CO2. The nonadherent cells were collected and cultured (2×10^4 cells/well/500 μl) in methylcellulose (R&D, Minneapolis, USA) (42%) [as a three-dimension (3D) culture system], which contained 33% StemPro-34 medium (Gibco, USA) enriched with: StemPro supplement (2.6%) (Gibco), insulin (25 μg/ml) (Gibco), transferrin (100 μg/ml) (Gibco), putrescin (60 μg/ml) (Gibco), sodium selenite (30 nM) (Gibco), D-glucose (6 mg/ml) (Sigma), pyruvic acid (30 μg/ml) (Sigma), BSA (Millpore, Illkirch, France) (5 mg/ml), L-glutamine (2 mM) (Biological Industries), 2-mercaptoethanol (0.5 μM) (Gibco), MEM vitamin solution (10 μl/ml) (Gibco, UK), MEM non-essential amino acid solution (10 μl/ml) (Gibco, UK), ascorbic acid (100 μM) (Sigma, China), d-biotin (10 μg/ml) (Sigma), 1% KSR (Gibco, UK), 0.5% Pen/Strep (Biological Industries), human rEGF (20 ng/ml) (Biolegend, CA, USA), human rGDNF (10 ng/ml) (Biolegend), human rLIF (10 ng/ml) (Biolegend) and human r-bFGF (10 ng/ml) (Biolegend). Cells were cultured for 1-16 weeks. Every 1-2 weeks (according to the growth and morphology of the cells), we added 50 μl/well of fresh concentrated (×10) enriched StemPro-34 medium to the cell cultures.
Isolated cells were fixed in cold methanol for 20 minutes. The immunostaining process was similar to that mentioned above for testicular tissue immunostaining after the stage of antigen retrieval. Following the removal of the blocking buffer, the first antibodies were added: Polyclonal rabbit anti-mouse SALL4 (Abcam, Cambridge, UK; 1:400), Polyclonal rabbit anti-human VASA (Santa Cruz 1:100), Polyclonal rabbit anti-human CD9 (Santa Cruz; 1:10), Polyclonal goat anti-human OCT4 (Santa Cruz; 1:50), Polyclonal rabbit anti-human α-6-INTEGRIN (Santa Cruz; 1:100), Polyclonal rabbit anti-human GFR-α □(Santa Cruz; 1:50), monoclonal mouse anti-human PLZF (Santa Cruz; 1:100), Polyclonal rabbit anti-human c-KIT (Santa Cruz; 1:50), Polyclonal rabbit anti-human BOULE (Santa Cruz; 1:25), Polyclonal rabbit anti-mouse CREM-1 (Santa Cruz; 1:30), Polyclonal goat anti-human LDH (Santa Cruz; 1:50), Polyclonal goat anti-mouse PROTAMINE (Santa Cruz; 1:20), Polyclonal rabbit anti-human ACROSIN (Santa Cruz; 1:10), monoclonal mouse anti-human Ki67 (Dianova GmbH, Germany; 1:200), monoclonal rabbit anti-human Ki67 (Cell marque; 1:200). After overnight incubation at 4° C., the slides were washed and treated as mentioned above for testicular tissue immunostaining. […]

[3] = TNFα 20 pg/ml, after culture (14.5 Ws) in MCS, patient 1, immunofluorescence staining

| Compound | expression of the meiotic/post-meiotic marker ACROSIN [1] | differentiation of the pre-meiotic cells to meiotic cells that express CREM ([2]; TNFα 20 pg/ml, patient #1, compared to CT (did not induce CREM)) | growth of premeiotic cells VASA and PLZF, meiotic cells (Boule) and postmeiotic cells (acrosin positive cells) ([2]; TNFα 20 pg/ml, patient #1, versus control (CT)) | ACROSIN (post-meiotic marker) staining [2, 3] | BOULE (meiotic marker) staining [2, 3] | CREM (meiotic marker) staining [2, 3] | PLZF (pre-meiotic marker) staining [2, 3] | SALL4 (pre-meiotic marker) staining [2, 3] | VASA (pre-meiotic marker) staining [2, 3] | development of colonies in MCS ([2]; in the presence of TNFα) |
| --- | --- | --- | --- | --- | --- | --- | --- | --- | --- | --- |
| C[C@]12CC[C@H]3[C@@H](CCC4=CC(=O)CC[C@@]43C)[C@@H]1CC[C@@H]2O [testosterone] | increased |  |  |  |  |  |  |  |  |  |
| TNFα |  | induced the differentiation | maintained/induced growth | + | + | + | + | − | + | colonies were developed |

From patent US20200199527A1, “METHODS OF MATURATION OF HUMAN SPERMATOGONIUM” (B.G. Negev Technologies & Applications Ltd., at Ben-Gurion …, priority 2017, published 2020)
